# In patent US8940909B2, “Indicator platform” (Biosynth AG, priority 2009, dated 2015):
# Columns and labels:
# [1] = system: bacteria producing various biomarker enzymes; assay: IO staining of colonies of bacteria producing various biomarker enzymes (Table IVc); assay type: cell-based; details: for F: Fluorescence of colonies (hue): hue of fluorescence of stained colonies, 24 h on agar containing the indicator (Table IVc)
# [2] = system: beta-galactosidase positive Eschericha coli (NM1); assay: IO staining of bacterial colonies on Nutrient Agar (color, fluorescence, localization, growth); as to C: Color of colonies (strength): key: −: absent; +/−: weak; +: strong; ++: very strong; as to F: Fluorescence of colonies (strength): key: −: absent; +/−: weak; +: strong; ++: very strong; as to G: Growth of colonies: key: −: absent; +/−: weak; +: strong; ++: very strong; as to L: Localization of stain on colonies: key: −: absent; +/−: weak; +: strong; ++: very strong; assay type: cell-based, E. coli; details: 150 mg/l substrate and 100 mg/l IPTG
# Method: Nutrient Agar (5 g/l peptone, 5 g/l NaCl, 2 g/l yeast extract, 1 g/l beef extract, 13 g/l agar, pH 7.4) was autoclaved and allowed to cool to 50° C. Then indicators were added to final concentrations of 150 mg/l (from a 20 mg/ml stock solution in DMF).
# Optionally IPTG was added to 100 mg/l (from a 100 mg/ml stock solution in H2O) and plates were poured. Agar plates were inoculated with cultures of beta-galactosidase positive Eschericha coli (NM1) or beta-galactosidase negative Salmonella enteritidis (RKI 05/07992) (pre-grown on nutrient broth for 8-18 hours) and incubated at 37° C. Plates were inspected at 16, 20, 24 and 48 hours and pictures were recorded at 18, 24, and 48 hours with a Digistore 2 Image documentation system (CAMAG) under white light.
# A considerable number of indicators molecules (Table IVa, IVb) and a selection of labile groups (Table IVc) were tested with various microbial species producing different biomarker enzymes (external stimuli, eS). The color of stains ranges from yellow to red.
# Plating media from Example 10 were examined under 366 nm UV irradiation at 16, 20, 24 and 48 hours for fluorescence by means of Digistore 2 Image documentation system (CAMAG). Loops of bacterial cells, grown for 48 hours on Nutrient Agar plates containing 150 mg/l beta-D-galactosidase indicator and 100 mg/l IPTG, were directly streaked into wells of black clear bottom microtiter plates. Fluorescence scans were recorded on a Spectramax M5 (Molecular Devices).
# [3] = Bacillus cereus strain 51, plc +, 24 h on Tryptic Soy Agar, 0.78 mM PC PLC Indicator, 3.2 g/l BSA, 0.05% Tween80, 5 mM MnCl2
# [4] = Bacillus cereus strain 191, plc +, 24 h on Tryptic Soy Agar, 0.78 mM PC PLC Indicator, 3.2 g/l BSA, 0.05% Tween80, 5 mM MnCl2
# [5] = Bacillus cereus strain 192, plc +, 24 h on Tryptic Soy Agar, 0.78 mM PC PLC Indicator, 3.2 g/l BSA, 0.05% Tween80, 5 mM MnCl2
# [6] = Bacillus cereus strain 289, plc +, 24 h on Tryptic Soy Agar, 0.78 mM PC PLC Indicator, 3.2 g/l BSA, 0.05% Tween80, 5 mM MnCl2
# [7] = Bacillus mycoides strain 64, plc +, 24 h on Tryptic Soy Agar, 0.78 mM PC PLC Indicator, 3.2 g/l BSA, 0.05% Tween80, 5 mM MnCl2
# [8] = Bacillus thuringiensis strain 66, plc +, 24 h on Tryptic Soy Agar, 0.78 mM PC PLC Indicator, 3.2 g/l BSA, 0.05% Tween80, 5 mM MnCl2
# [9] = Escherichia coli strain 61, plc +/−, 24 h on Tryptic Soy Agar, 0.78 mM PC PLC Indicator, 3.2 g/l BSA, 0.05% Tween80, 5 mM MnCl2
# [10] = Escherichia coli strain 270, plc +/−, 24 h on Tryptic Soy Agar, 0.78 mM PC PLC Indicator, 3.2 g/l BSA, 0.05% Tween80, 5 mM MnCl2
# [11] = Listeria monocytogenes (4b) strain 290, plc +, 24 h on Tryptic Soy Agar, 0.78 mM PC PLC Indicator, 3.2 g/l BSA, 0.05% Tween80, 5 mM MnCl2
# [12] = Pseudomonas aeruginosa strain 168, plc +, 24 h on Tryptic Soy Agar, 0.78 mM PC PLC Indicator, 3.2 g/l BSA, 0.05% Tween80, 5 mM MnCl2
# [13] = Pseudomonas aeruginosa strain 168, plc +, 24 h on Tryptic Soy Agar, 0.78 mM PC PLC Indicator, 3.2 g/l BSA, 0.05% Tween80, 5 mM MnCl2, natural color, same on agar without substrate
# [14] = Pseudomonas aeruginosa strain 168, plc +, 24 h on Tryptic Soy Agar, 0.78 mM PC PLC Indicator, 3.2 g/l BSA, 0.05% Tween80, 5 mM MnCl2, natural fluorescence, same on agar without substrate
# [15] = Escherichia coli strain 61, glucuronidase +, 24 h on Nutrient Agar, 0.45 mM beta-D-Glucuronidase Indicator
# [16] = Escherichia coli strain 62, glucuronidase +, 24 h on Nutrient Agar, 0.45 mM beta-D-Glucuronidase Indicator
# [17] = Escherichia coli strain 270, glucuronidase +, 24 h on Nutrient Agar, 0.45 mM beta-D-Glucuronidase Indicator
# [18] = Klebsiella pneumoniae strain 164, glucuronidase −, 24 h on Nutrient Agar, 0.45 mM beta-D-Glucuronidase Indicator
# [19] = Bacillus cereus strain 289, 24 h on Nutrient Agar, 0.52 mM C1-Esterase Indicator
# [20] = Escherichia coli strain 270, 24 h on Nutrient Agar, 0.52 mM C1-Esterase Indicator
# [21] = Klebsiella pneumoniae strain 164, 24 h on Nutrient Agar, 0.52 mM C1-Esterase Indicator
# [22] = Enterobacter aerogenes strain 242, a-glucosidase −, 24 h on Nutrient Agar, 150 mg/l alpha-D-Glucosidase Indicator
# [23] = Enterobacter cloacae strain 245, a-glucosidase −, 24 h on Nutrient Agar, 150 mg/l alpha-D-Glucosidase Indicator
# [24] = Enterobacter sakazakii strain 141, a-glucosidase +, 24 h on Nutrient Agar, 150 mg/l alpha-D-Glucosidase Indicator
# [25] = Enterobacter sakazakii strain 142, a-glucosidase +, 24 h on Nutrient Agar, 150 mg/l alpha-D-Glucosidase Indicator
# [26] = Escherichia coli strain 270, a-glucosidase −, 24 h on Nutrient Agar, 150 mg/l alpha-D-Glucosidase Indicator
# [27] = Shigella sonnei strain 133, a-glucosidase −, 24 h on Nutrient Agar, 150 mg/l alpha-D-Glucosidase Indicator
compound,measurement,setting,value
"1-[2-(2,4-Dimethoxybenzoyl)phenyl]-1H-indol-3-yl choline phosphate [Indicator I25d]",C: Color of colonies,[1]; [3],+
same,F: Fluorescence of colonies,[1]; [3],++
same,G: Growth of colonies,[1]; [3],+
same,C: Color of colonies,[1]; [4],+
same,F: Fluorescence of colonies,[1]; [4],++
same,G: Growth of colonies,[1]; [4],+
same,C: Color of colonies,[1]; [5],++
same,F: Fluorescence of colonies,[1]; [5],++
same,G: Growth of colonies,[1]; [5],+
same,C: Color of colonies,[1]; [6],+
same,F: Fluorescence of colonies,[1]; [6],++
same,G: Growth of colonies,[1]; [6],+
same,C: Color of colonies,[1]; [7],+
same,F: Fluorescence of colonies,[1]; [7],++
same,G: Growth of colonies,[1]; [7],+
same,C: Color of colonies,[1]; [8],+
same,F: Fluorescence of colonies,[1]; [8],++
same,G: Growth of colonies,[1]; [8],+
same,C: Color of colonies,[1]; [9],+/−
same,F: Fluorescence of colonies,[1]; [9],+/−
same,G: Growth of colonies,[1]; [9],+
same,C: Color of colonies,[1]; [10],+/−
same,F: Fluorescence of colonies,[1]; [10],+/−
same,G: Growth of colonies,[1]; [10],+
same,C: Color of colonies,[1]; [11],−
same,F: Fluorescence of colonies,[1]; [11],−
same,G: Growth of colonies,[1]; [11],+
same,G: Growth of colonies,[1]; [12],+
same,C: Color of colonies,[1]; [13],y-g^1
same,F: Fluorescence of colonies,[1]; [14],b^2
same,F: Fluorescence of colonies (hue),[1],y-g
"O=C([O-])[C@H]1O[C@@H](Oc2c[nH]c3cc(Cl)ccc23)[C@H](O)[C@@H](O)[C@@H]1O.[Na+] [Indicator I3f, 6-Chloro-1H-indol-3-yl-beta-D-glucuronide sodium salt, reference compound]",C: Color of colonies,[1]; [15],+
same,F: Fluorescence of colonies,[1]; [15],−
same,G: Growth of colonies,[1]; [15],+
same,C: Color of colonies,[1]; [16],+
same,F: Fluorescence of colonies,[1]; [16],−
same,G: Growth of colonies,[1]; [16],+
same,C: Color of colonies,[1]; [17],+
same,F: Fluorescence of colonies,[1]; [17],−
same,G: Growth of colonies,[1]; [17],+
same,C: Color of colonies,[1]; [18],−
same,F: Fluorescence of colonies,[1]; [18],−
same,G: Growth of colonies,[1]; [18],+
"CC(=O)Oc1cn(-c2ccccc2C(=O)c2ccccc2)c2ccccc12 [Indicator I19c, 1-(2-Benzoylphenyl)-1H-indol-3-yl acetate]",C: Color of colonies,[1]; [19],++
same,G: Growth of colonies,[1]; [19],+
same,C: Color of colonies,[1]; [20],+/−
same,G: Growth of colonies,[1]; [20],+
same,C: Color of colonies,[1]; [21],+
same,G: Growth of colonies,[1]; [21],+
"O=C(c1ccccc1)c1ccccc1-n1cc(O[C@@H]2O[C@H](C(=O)[O-])[C@@H](O)[C@H](O)[C@H]2O)c2ccc(Cl)cc21.[Na+] [Indicator I21f, 1-(2-Benzoylphenyl)-6-chloro-1H-indol-3-yl-beta-D-glucuronide sodium salt]",C: Color of colonies,[1]; [15],+
same,F: Fluorescence of colonies,[1]; [15],+/−
same,G: Growth of colonies,[1]; [15],+
same,C: Color of colonies,[1]; [16],+
same,F: Fluorescence of colonies,[1]; [16],+/−
same,G: Growth of colonies,[1]; [16],+
same,C: Color of colonies,[1]; [17],+
same,F: Fluorescence of colonies,[1]; [17],+/−
same,G: Growth of colonies,[1]; [17],+
same,C: Color of colonies,[1]; [18],−
same,F: Fluorescence of colonies,[1]; [18],−
same,G: Growth of colonies,[1]; [18],+
same,F: Fluorescence of colonies (hue),[1],y-o
"CC(=O)Oc1c[nH]c2ccc(Br)c(Cl)c12 [Indicator I4c, 5-Bromo-4-chloro-1H-indol-3-yl acetate, reference compound]",C: Color of colonies,[1]; [19],−
same,F: Fluorescence of colonies,[1]; [19],−
same,G: Growth of colonies,[1]; [19],−
same,C: Color of colonies,[1]; [20],−
same,F: Fluorescence of colonies,[1]; [20],−
same,G: Growth of colonies,[1]; [20],+/−
same,C: Color of colonies,[1]; [21],+
same,F: Fluorescence of colonies,[1]; [21],−
same,G: Growth of colonies,[1]; [21],+
same,F: Fluorescence of colonies (hue),[1],−
"O=C(c1ccccc1)c1ccccc1-n1cc(O[C@H]2O[C@H](CO)[C@@H](O)[C@H](O)[C@H]2O)c2ccc(Cl)cc21 [Indicator I21e, 1-(2-Benzoylphenyl)-6-chloro-1H-indol-3-yl-alpha-D-glucopyranoside]",C: Color of colonies,[1]; [22],−
same,F: Fluorescence of colonies,[1]; [22],−
same,G: Growth of colonies,[1]; [22],+
same,C: Color of colonies,[1]; [23],−
same,F: Fluorescence of colonies,[1]; [23],−
same,G: Growth of colonies,[1]; [23],+
same,C: Color of colonies,[1]; [24],+
same,F: Fluorescence of colonies,[1]; [24],+/−
same,G: Growth of colonies,[1]; [24],+
same,C: Color of colonies,[1]; [25],+
same,F: Fluorescence of colonies,[1]; [25],+/−
same,G: Growth of colonies,[1]; [25],+
same,C: Color of colonies,[1]; [26],−
same,F: Fluorescence of colonies,[1]; [26],−
same,G: Growth of colonies,[1]; [26],+
same,C: Color of colonies,[1]; [27],−
same,F: Fluorescence of colonies,[1]; [27],−
same,G: Growth of colonies,[1]; [27],+
same,F: Fluorescence of colonies (hue),[1],y-g
"5-Bromo-4-chloro-1H-indol-3-yl choline phosphate [Indicator I4d, reference compound]",C: Color of colonies,[1]; [3],+/−
same,F: Fluorescence of colonies,[1]; [3],−
same,G: Growth of colonies,[1]; [3],+
same,C: Color of colonies,[1]; [4],+/−
same,F: Fluorescence of colonies,[1]; [4],−
same,G: Growth of colonies,[1]; [4],+
same,C: Color of colonies,[1]; [5],++
same,F: Fluorescence of colonies,[1]; [5],−
same,G: Growth of colonies,[1]; [5],+
same,C: Color of colonies,[1]; [6],−
same,F: Fluorescence of colonies,[1]; [6],−
same,G: Growth of colonies,[1]; [6],+
same,C: Color of colonies,[1]; [7],+
same,F: Fluorescence of colonies,[1]; [7],−
same,G: Growth of colonies,[1]; [7],+
same,C: Color of colonies,[1]; [8],+/−
same,F: Fluorescence of colonies,[1]; [8],−
same,G: Growth of colonies,[1]; [8],+
same,C: Color of colonies,[1]; [9],+
same,F: Fluorescence of colonies,[1]; [9],−
same,G: Growth of colonies,[1]; [9],+
same,C: Color of colonies,[1]; [10],+/−
same,F: Fluorescence of colonies,[1]; [10],−
same,G: Growth of colonies,[1]; [10],+
same,C: Color of colonies,[1]; [11],−
same,F: Fluorescence of colonies,[1]; [11],−
same,G: Growth of colonies,[1]; [11],+
same,G: Growth of colonies,[1]; [12],+
same,C: Color of colonies,[1]; [13],y-g^1
same,F: Fluorescence of colonies,[1]; [14],b^2
same,F: Fluorescence of colonies (hue),[1],−
"O=C(c1ccccc1)c1ccc(Cl)cc1-n1cc(O[C@@H]2O[C@H](CO)[C@H](O)[C@H](O)[C@H]2O)c2ccc(Cl)cc21 [Indicator I23a, 1-(2-Benzoyl-5-chlorophenyl)-6-chloro-1H-indol-3-yl-beta-D-galactopyranoside]",F: Fluorescence of colonies (colour),"[2]; 24 h, 366 nm UV",green-yellow
same,C: Color of colonies (colour of stain),[2]; 24 h on Nutrient Agar,yellow
same,G: Growth of colonies,"[2]; E. coli, 24 h",+
same,L: Localization of stain on colonies,"[2]; E. coli, 24 h",+
same,F: Fluorescence of colonies (strength),"[2]; E. coli, 24 h, 366 nm UV",+
same,C: Color of colonies (strength),"[2]; E. coli, 24 h on Nutrient Agar",+
